Results on ten compounds are retold here after paper PMC10111423, “Antimalarial Imidazopyridines Incorporating an Intramolecular Hydrogen Bonding Motif: Medicinal Chemistry and Mechanistic Studies” (ACS Infectious Diseases, 2023).

pIC50: −log10 of the molar value. Values after ≈ are worked out from the molar mass of the structure shown. Where two headings read alike, the source gives them in different places. Bounds are passed on as bounds.

Series [1] deals with chloroquine-sensitive (NF54) strain of P. falciparum. In words: In vitro asexual blood-stage antiplasmodium pLDH assay, NF54 strain. It counts as cell-based. The following applies: Plasmodium falciparum. The method, then: (§1) Compounds were screened against multi-drug-resistant (K1) and sensitive (NF54) strains of P. falciparum in vitro using a parasite lactate dehydrogenase assay (pLDH) (the method is described fully in the Supporting Information). […]
(§2) In vitro Asexual Blood Stage Antiplasmodium Assay
(§3) Parasites were cultured as per the method of Trager and Jensen,1 with modifications. IC50 values were determined using parasite lactate dehydrogenase as a marker for survival (Makler […]
(§4) et al, 1993). The test samples were prepared to a 10 mmol/L stock solution in 100% DMSO.
(§5) Samples were tested as a suspension if not completely dissolved. Further dilutions to the desired starting concentration were freshly prepared in growth media on each occasion of the experiment. The standard antimalarial drugs chloroquine (CQ) and artesunate (Arts) were used as the reference drug in all experiments. A full dose-response was performed for all compounds in a 96-well plate to determine the concentration inhibiting 50% of parasite growth (IC50– value). Test samples were tested at a starting concentration of 6mmol/L, which was then serially diluted 2-fold in growth medium to generate the tested concentration range. The same dilution technique was used for all samples. CQ and Arts were tested from a starting concentration of 1µg/mL. The highest concentration of solvent to which the parasites were exposed was <0.1% and has no measurable effect on the parasite viability (data not shown).
(§6) The assay plate was incubated at 37 °C for 72h in a sealed gas chamber under 3% O2 and 4% CO2 with the balance being N2. After 72h, the wells in the assay plate were gently resuspended, and 15µL from each well was transferred to a duplicate plate containing 100µL of Malstat reagent and 25µL of nitroblue tetrazolium solution in each well. Plates were left to develop for 20 minutes in the dark and then absorbance of each well was quantified using a spectrophotometer at 620nm wavelength.
(§7) The remaining population of parasites at each concentration of the test compound was determined by comparing the absorbance of each well to the absorbance of a well containing […]
(§8) the drug-free control. […]
(§9) The initial 100 µg/mL solution is serially diluted 10-

Series [2] deals with Chinese hamster ovarian (CHO) cell line. The series is described as follows: In vitro cytotoxicity MTT assay. It counts as cell-based. The note with it: CHO vs PfNF54. The method, then:
(§10) In vitro cytotoxicity was performed on the Chinese Hamster Ovarian cell line by measuring cellular growth and survival calorimetrically through the MTT assay.[29],[30] The formation of tetrazolium salt was used as a measure of chemosensitivity and growth. (Details of this assay is described in the Supporting Information.) page 19: et al, 1993). The test samples were prepared to a 10 mmol/L stock solution in 100% DMSO. Samples were tested as a suspension if not completely dissolved. Further dilutions to the desired starting concentration were freshly prepared in growth media on each occasion of the experiment. The standard antimalarial drugs chloroquine (CQ) and artesunate (Arts) were used as the reference drug in all experiments. A full dose-response was performed for all compounds […] value). Test samples were tested at a starting concentration of 6mmol/L, which was then serially diluted 2-fold in growth medium to generate the tested concentration range. The same dilution technique was used for all samples. CQ and Arts were tested from a starting concentration of 1μg/mL. The highest concentration of solvent to which the parasites were exposed was <0.1% and has no measurable effect on the parasite viability (data not shown). The assay plate was incubated at 37 °C for 72h in a sealed gas chamber under 3% O2 and 4% CO2 with the balance being N2. After 72h, the wells in the assay plate were gently resuspended, and 15μL from each well was transferred to a duplicate plate containing 100μL of Malstat reagent and 25μL of nitroblue tetrazolium solution in each well. Plates were left to develop for 20 minutes in the dark and then absorbance of each well was quantified using a spectrophotometer at 620nm wavelength. The remaining population of parasites at each concentration of the test compound was determined by comparing the absorbance of each well to the absorbance of a well containing the drug-free control. Survival was plotted against concentration and the IC50 values were obtained using a non-linear dose-response curve fitting analysis via the Dotmatics software platform.2 In vitro Cytotoxicity Assay In vitro cytotoxicity was performed on the Chinese Hamster Ovarian cell line by measuring […] diphenyltetrazolium bromide (MTT) assay.3,4 The formation of tetrazolium salt was used as a measure of chemosensitivity and growth. 2 mg/mL stock solutions of the test compounds were prepared in DMSO and stored at -20 °C until required. The stock solution was subsequently diluted with the assay medium to make up an initial concentration of 100 μg/mL. The initial 100 μg/mL solution is serially diluted 10- S19 page 20: fold to attain six assay concentrations of 100-0.001 μg/mL. […] was used as the reference compound in this assay. The highest concentration of DMSO, which was used as the negative control, had no measurable effect on cell viability. After 44 hours of exposure of the cells to the test compounds, a solution of MTT was added. This was followed by an additional 4 hours of incubation at 37 °C. The assay plates were centrifuged, medium removed, and DMSO was added to the crystals. The amount of formazan was ascertained by measuring the absorbance at 540 nm. GraphPad Prism software was then used to generate IC50 values through a non-linear dose-response curve analysis. β-Hematin Inhibition Assay 20 mM stock solutions of controls and test compounds were made in DMSO. A solution […] was added to every well in columns 1-11 of a 96-well plate. 140 μL of water and 40 μL of 305.5 μM NP-40 were added to column 12 to mediate the formation of beta-hematin. 20 μL of test compounds (20 mM) were added to column 12 and 100 μL of this solution serially diluted to column 2, leaving column 1 blank (0 μM of test compound). 178.8 μL aliquot of hematin stock was suspended in 20 ml of a 1 M acetate buffer at pH 4.9. 100 μL of this hematin suspension was then added into each well, and the plates were incubated for ±5 hrs at 37°C. […]
In general terms: Tetrazolium assays rely on reduction of a dye to a coloured formazan, in cell work by metabolically active cells.

The nature of series [3]: In vitro cytotoxicity MTT assay. It counts as cell-based, Chinese hamster. The following applies: Chinese hamster, Chinese hamster ovarian (CHO) cells; MTT assay. The method, then: as §10
The next series is described as follows: Solubility. It counts as physicochemical. The note with it: pH 6.5, aqueous buffer. The source says: Table 1 In Vitro Antiplasmodium Activity, Cytotoxicity, BHIA, and Solubility | column: Solubility pH 6.5, μM
Series [4] has as its system multidrug-resistant (K1) strain of P. falciparum. The series is described as follows: In vitro asexual blood-stage antiplasmodium pLDH assay, K1 strain. It counts as cell-based. The note with it: Plasmodium falciparum, 72 h, n ≥ 3, read-out: In vitro antiplasmodium activity IC50 PfK1 strain. The method, then:
as §1, §2, §3, §4, §5, §6, §7, §8, §9

In a further series the test system is β-hematin. The series is described as follows: β-Hematin inhibition assay (BHIA), cell-free NP-40 mediated. The note with it: mean of n = 3. It counts as biochemical. The method, then: page 20: fold to attain six assay concentrations of 100-0.001 μg/mL. […] was used as the reference compound in this assay. The highest concentration of DMSO, which was used as the negative control, had no measurable effect on cell viability. After 44 hours of exposure of the cells to the test compounds, a solution of MTT was added. This was followed by an additional 4 hours of incubation at 37 °C. The assay plates were centrifuged, medium removed, and DMSO was added to the crystals. The amount of formazan was ascertained by measuring the absorbance at 540 nm. GraphPad Prism software was then used to generate IC50 values through a non-linear dose-response curve analysis. β-Hematin Inhibition Assay 20 mM stock solutions of controls and test compounds were made in DMSO. A solution […] was added to every well in columns 1-11 of a 96-well plate. 140 μL of water and 40 μL of 305.5 μM NP-40 were added to column 12 to mediate the formation of beta-hematin. 20 μL of test compounds (20 mM) were added to column 12 and 100 μL of this solution serially diluted to column 2, leaving column 1 blank (0 μM of test compound). 178.8 μL aliquot of hematin stock was suspended in 20 ml of a 1 M acetate buffer at pH 4.9. 100 μL of this hematin […] pH 7.4 and 50% pyridine) and 60 μL of acetone were added to all wells. The absorbances of plate wells were recorded at 405 nm on a SpectraMax plate reader. Sigmoidal dose-response curves with variable slopes were fitted to the absorbance data using GraphPad Prism to obtain the IC50 values for each compound. In vitro Microsomal Stability Assay The in vitro microsomal stability assay was performed in duplicate in a 96-well micro titre […] individually in human (pool of 50, mixed gender), rat (pool of 711, male Sprague Dawley) and mouse (pool of 1634, male CD1) liver microsomes (final protein concentration of 0.4 mg/mL; Xenotech, Kansas, USA), suspended in 0.1M phosphate buffer (pH 7.4). Incubations were S20

The mark [5] stands for this setting: NF54, pLDH, 72 h, n ≥ 3, read-out: In vitro antiplasmodium activity IC50 PfNF54 strain.

A word on the pIC50: it is the IC50 on a negative log10 scale, so that one unit is a factor of ten. The term IC50 denotes the point on the concentration scale where inhibition reaches its midpoint. Lower therefore signals higher potency. Broadly, the solubility is how much of the substance goes into solution per volume. Read a low solubility as little dissolved substance.

In the case of `CCN(CCNc1cc2[nH]c(C3CCOCC3)nc2cn1)Cc1ccc(Cl)cc1O` [Compound 3, 5-Chloro-2-((ethyl(2-((2-(tetrahydro-2H-pyran-4-yl)-1H-imidazo[4,5-c]pyridin-6-yl)amino)ethyl)amino)methyl)phenol], the pIC50 in series [1] (setting [5]) was 5.63; in series [4], 5.38; in the series on β-hematin, 3.14. For the same compound, the “SI (selectivity index) = IC50 CHO/IC50 PfNF54” value in series [2] is >21.09. Also, the IC50 at 44 h in series [3] was > 50 µM. The concentration in solution in the series “Solubility” (solubility) was 120 µM (≈ 51.6 µg/mL).
As for `CCN(CCNc1cc2[nH]c(C3CCCCC3)nc2cn1)Cc1ccc(Cl)cc1O` [Compound 11, 5-Chloro-2-(((2-((2-cyclohexyl-1H-imidazo[4,5-c]pyridin-6-yl)amino)ethyl)(ethyl)amino)methyl)phenol], the pIC50 was 6.16 in series [1] (setting [5]), 5.67 in series [4] and 4.10 with β-hematin. For the same compound, in series [2], the “SI (selectivity index) = IC50 CHO/IC50 PfNF54” value was >72.46. The IC50 at 44 h in series [3] was > 50 µM. This compound had a solubility in “Solubility” of 140 µM (≈ 59.9 µg/mL).
Take `C[C@H]1[C@H](OC(=O)CCC(=O)O)O[C@@H]2O[C@@]3(C)CC[C@H]4[C@H](C)CC[C@@H]1[C@@]24OO3` [artesunate, reference compound]: the negative-log IC50 (pIC50) in series [1] (NF54, controls, strain not stated in footnote, read-out: IC50 of controls in pLDH antiplasmodium assay) was 8.15.
For the compound `CCN(CCNc1cc2[nH]c(CC3CC3)nc2cn1)Cc1ccc(Cl)cc1O` [Compound 8, 5-Chloro-2-(((2-((2-(cyclopropylmethyl)-1H-imidazo[4,5-c]pyridin-6-yl)amino)ethyl)(ethyl)amino)methyl)phenol], the figures for the pIC50 (in series [1] (setting [5]); in series [4]; with β-hematin) were 6.25, 5.22 and 3.35, respectively. Moreover, in series [2], the “SI (selectivity index) = IC50 CHO/IC50 PfNF54” value is reported as >89.29. Besides, the IC50 at 44 h in series [3] is > 50 µM. In “Solubility”, this compound displayed a solubility of 185 µM (≈ 74 µg/mL).
As to `CCN(CCNc1cc2[nH]c(C3(C(F)(F)F)CC3)nc2cn1)Cc1ccc(Cl)cc1O` [Compound 7, 5-Chloro-2-((ethyl(2-((2-(1-(trifluoromethyl)cyclopropyl)-1H-imidazo[4,5-c]pyridin-6-yl)amino)ethyl)amino)methyl)phenol], the pIC50 in series [1] (setting [5]) was 5.78; in series [4], 5.22; with β-hematin, 3.56. For the same compound, the “SI (selectivity index) = IC50 CHO/IC50 PfNF54” value in series [2] is >29.94. Further, the IC50 at 44 h in series [3] was > 50 µM. This compound also showed a solubility in the series “Solubility” of 175 µM (≈ 79.4 µg/mL).
On to `CCN(CCNc1cc2[nH]c(C3CCOC3)nc2cn1)Cc1ccc(Cl)cc1O` (centres unmarked) [Compound 2, 5-Chloro-2-((ethyl(2-((2-(tetrahydrofuran-3-yl)-1H-imidazo[4,5-c]pyridin-6-yl)amino)ethyl)amino)methyl)phenol], for which the pIC50 in series [1] (setting [5]) was 5.78; in series [4], 5.79; in the series on β-hematin, 3.65. The “SI (selectivity index) = IC50 CHO/IC50 PfNF54” value in series [2] was >29.94. Further, the IC50 at 44 h in series [3] is > 50 µM. The compound further had a solubility in “Solubility” of 125 µM (≈ 52 µg/mL).
On to `CCN(CCNc1cc2[nH]c([C@H]3CC[C@@H](C(F)(F)F)CC3)nc2cn1)Cc1ccc(Cl)cc1O` [Compound 17, 5-Chloro-2-((ethyl(2-((2-((1r,4r)-4-(trifluoromethyl)cyclohexyl)-1H-imidazo[4,5-c]pyridin-6-yl)Amino)ethyl)amino)methyl)phenol], for which the pIC50 in series [1] (setting [5]) was 6.02; in series [4], 5.77; in the series with β-hematin, 3.62. Besides, the “SI (selectivity index) = IC50 CHO/IC50 PfNF54” value in series [2] was 51.68. The compound further gave an IC50 at 44 h in series [3] of 49.1 µM. Moreover, in “Solubility”, the solubility was found to be 135 µM (≈ 67 µg/mL).
With `O=[N+]([O-])c1ccc(NCCN(CCNc2cc3[nH]c(-c4cccc(C(F)(F)F)c4)nc3cn2)Cc2ccc(Cl)cc2O)c2nonc12` [Compound 14-NBD, 5-Chloro-2-(((2-((7-nitrobenzo[c][1,2,5]oxadiazol-4-yl)amino)ethyl)(2-((2-(3-(trifluoromethyl)phenyl)-1H-imidazo[4,5-c]pyridin-6-yl)amino)ethyl)amino)methyl)phenol], in series [1] (setting [5]), the pIC50 is 7.31.
`CCN(CCNc1cc2[nH]c(C3CCC(F)(F)CC3)nc2cn1)Cc1ccc(Cl)cc1O` [Compound 12, 5-Chloro-2-(((2-((2-(4,4-difluorocyclohexyl)-1H-imidazo[4,5-c]pyridin-6-yl)amino)ethyl)(ethyl)amino)methyl)phenol]: the pIC50 was 6.03 in series [1] (setting [5]), 5.43 in series [4] and 4.51 in the series with β-hematin. In addition, the IC50 at 44 h in series [3] is > 50 µM. Besides, the solubility in “Solubility” is < 5 µM.
Take `CCN(CC)CCCC(C)Nc1ccnc2cc(Cl)ccc12` (centres unmarked) [chloroquine, reference compound]: the pIC50 in series [1] (NF54, read-out: IC50 of controls in pLDH antiplasmodium assay) is 7.92.
